# Measurements from PMC3114464 (Biochemistry, 2011).
# pKd: −log10 of the molar value.
# Assays:
# Type in all cases: binding
# [1] = target: IsdA-N1 (IsdA NEAT domain) (Staphylococcus aureus, UniProt Q7A655)
# [2] = target: IsdB-N2 (C-terminal NEAT domain of IsdB) (Staphylococcus aureus, UniProt Q7A656); assay: […] Å crystal structure
# IsdB-N2 M362L = IsdB-N2 M362L (Staphylococcus aureus, UniProt Q7A656, M362L); assay: Trp fluorescence quenching
smiles,measurement,setting,value
C=CC1=C(C)C2=Cc3c(C=C)c(C)c4[n]3[Fe][n]3c(c(C)c(CCC(=O)O)c3=CC3=NC(=C4)C(C)=C3CCC(=O)O)=CC1=N2 [heme],stopped-flow Soret spectroscopy of heme transfer from holo-IsdB-N2 to apo-IsdA-N,[1],82 ± 6 s^–1
same,pKd,[2],> 6.42
same,pKd,IsdB-N2 M362L,> 6.31
